Results as given in PubChem BioAssay AID288 (DTP/NCI, 2004).
Values joined by “and” are separate entries in the source; they are usually repeats but may differ in a detail not shown here. Equal values may be shown once. Records with an inconclusive call do not appear.

Test system: BDF1 mice, M5076 sarcoma s.c., survival/tumor T/C
Test: NCI In Vivo Anticancer Drug Screen. Data for tumor model Sarcoma M5076 (subcutaneous) in B6D2F1 (BDF1) mice
Conditions: endpoint: median survival time, higher = longer survival
Procedure: The antitumor activity of compounds was measured in mice bearing transplantable tumors. Survival or tumor size were measured and the results are expressed as the measurement made in the treated group (T) divided by the measurement made in the vehicle treated control group (C). The tumor model used in this assay is Sarcoma M5076 (subcutaneous) in B6D2F1 (BDF1) mice

With `CC1(C)N=C(N)N=C(N)N1c1ccc(CCCCc2ccc(S(=O)(=O)F)cc2Cl)c(Cl)c1` as the compound, how does the T/C (dose: 1.8 mg/kg/injection, schedule: Q01DX005 (iv), vehicle: other) read?
The T/C was 97 % of control.

What about the T/C (dose: 3.7 mg/kg/injection, schedule: Q01DX001 (iv), vehicle: other) of the same compound?
Its T/C is 107 % of control.

What about the T/C (dose: 3.7 mg/kg/injection, schedule: Q01DX005 (iv), vehicle: other) of the same compound?
Its T/C is 97 % of control.

And the T/C (dose: 5.18 mg/kg/injection, schedule: Q01DX009 (ip), vehicle: other)?
The T/C was 162 % of control.

What about the T/C (dose: 5.4 mg/kg/injection, schedule: Q01DX009 (ip), vehicle: other) of the same compound?
Its T/C is 151 % of control.

And the T/C (dose: 7.5 mg/kg/injection, schedule: Q01DX001 (iv), vehicle: other)?
The T/C was 91 % of control.

And the T/C (dose: 7.5 mg/kg/injection, schedule: Q01DX005 (iv), vehicle: other)?
The T/C was 114 % of control.

And the T/C (dose: 8.0 mg/kg/injection, schedule: Q01DX009 (ip), vehicle: other)?
The T/C was 151 % of control.

What about the T/C (dose: 8.64 mg/kg/injection, schedule: Q01DX009 (ip), vehicle: other) of the same compound?
The T/C was 176 % of control.

What about the T/C (dose: 10.0 mg/kg/injection, schedule: Q01DX009 (ip), vehicle: saline with Tween-80) of the same compound?
Its T/C is 150 % of control.

What about the T/C (dose: 14.4 mg/kg/injection, schedule: Q01DX009 (ip), vehicle: other) of the same compound?
Its T/C is 190 % of control.

What about the T/C (dose: 15.0 mg/kg/injection, schedule: Q01DX001 (ip), vehicle: other) of the same compound?
The T/C was 110 % of control.

And the T/C (dose: 15.0 mg/kg/injection, schedule: Q01DX005 (ip), vehicle: other)?
Its T/C is 124 % of control.

What about the T/C (dose: 15.0 mg/kg/injection, schedule: Q01DX009 (oral), vehicle: other) of the same compound?
Its T/C is 89 % of control.

And the T/C (dose: 20.0 mg/kg/injection, schedule: Q01DX009 (ip), vehicle: other)?
Its T/C is 155 % of control.

What about the T/C (dose: 20.0 mg/kg/injection, schedule: Q01DX009 (ip), vehicle: saline with Tween-80) of the same compound?
Its T/C is 177 % of control.

And the T/C (dose: 27.0 mg/kg/injection, schedule: Q01DX009 (ip), vehicle: saline with Tween-80)?
Its T/C is 168 % of control.

And the T/C (dose: 30.0 mg/kg/injection, schedule: Q01DX001 (ip), vehicle: other)?
Its T/C is 103 % of control.

And the T/C (dose: 30.0 mg/kg/injection, schedule: Q01DX001 (oral), vehicle: other)?
Its T/C is 110 % of control.

And the T/C (dose: 30.0 mg/kg/injection, schedule: Q01DX005 (oral), vehicle: other)?
Its T/C is 97 % of control.

What about the T/C (dose: 30.0 mg/kg/injection, schedule: Q01DX009 (ip), vehicle: other) of the same compound?
Its T/C is 169 % of control.

And the T/C (dose: 30.0 mg/kg/injection, schedule: Q01DX009 (oral), vehicle: other)?
Its T/C is 120 % of control.

What about the T/C (dose: 40.0 mg/kg/injection, schedule: Q01DX009 (ip), vehicle: saline with Tween-80) of the same compound?
Its T/C is 163 % of control and 217 % of control and 232 % of control.

What about the T/C (dose: 60.0 mg/kg/injection, schedule: Q01DX001 (ip), vehicle: other) of the same compound?
The T/C was 111 % of control.

And the T/C (dose: 60.0 mg/kg/injection, schedule: Q01DX001 (oral), vehicle: other)?
The T/C was 97 % of control.

And the T/C (dose: 60.0 mg/kg/injection, schedule: Q01DX005 (oral), vehicle: other)?
The T/C was 117 % of control.

And the T/C (dose: 60.0 mg/kg/injection, schedule: Q01DX009 (ip), vehicle: saline with Tween-80)?
The T/C was 204 % of control and 239 % of control.

And the T/C (dose: 60.0 mg/kg/injection, schedule: Q01DX009 (oral), vehicle: other)?
Its T/C is 114 % of control.

What about the T/C (dose: 62.0 mg/kg/injection, schedule: Q01DX009 (ip), vehicle: saline with Tween-80) of the same compound?
The T/C was 255 % of control.

And the T/C (dose: 89.0 mg/kg/injection, schedule: Q01DX009 (ip), vehicle: saline with Tween-80)?
The T/C was 224 % of control.

And the T/C (dose: 120.0 mg/kg/injection, schedule: Q01DX001 (oral), vehicle: other)?
Its T/C is 97 % of control.

What about the T/C (dose: 120.0 mg/kg/injection, schedule: Q01DX005 (oral), vehicle: other) of the same compound?
The T/C was 116 % of control.

What about the T/C (dose: 120.0 mg/kg/injection, schedule: Q01DX009 (oral), vehicle: other) of the same compound?
Its T/C is 104 % of control.

What about the T/C (dose: 240.0 mg/kg/injection, schedule: Q01DX001 (ip), vehicle: other) of the same compound?
The T/C was 123 % of control.

What about the T/C (dose: 240.0 mg/kg/injection, schedule: Q01DX001 (oral), vehicle: other) of the same compound?
Its T/C is 109 % of control.

What about the T/C (dose: 240.0 mg/kg/injection, schedule: Q01DX005 (oral), vehicle: other) of the same compound?
Its T/C is 117 % of control.

And the T/C (dose: 240.0 mg/kg/injection, schedule: Q01DX009 (oral), vehicle: other)?
Its T/C is 110 % of control.

What about the T/C (dose: 480.0 mg/kg/injection, schedule: Q01DX001 (oral), vehicle: other) of the same compound?
Its T/C is 100 % of control.

And the T/C (dose: 480.0 mg/kg/injection, schedule: Q01DX005 (oral), vehicle: other)?
Its T/C is 109 % of control.

What about the T/C (dose: 480.0 mg/kg/injection, schedule: Q01DX009 (oral), vehicle: other) of the same compound?
Its T/C is 124 % of control.
